Experimental data from patent US20210290680A1, “METHODS AND COMPOSITIONS FOR MODULATING CELLULAR AGING” (Dorian Therapeutics, Inc., priority 2019, published 2021).

Experiments:
[1] = test system: CHLA-55 neuroblastoma cell lines; assay: In vivo anti-tumor activity of GD2.CAR T cells (circulating Gaussia luciferase); conditions: immunocompromised mice, one million GD2.CAR T cells via tail vein, n=4-6
Protocol: Primary T cells were activated as described (Example 3), transduced with a lentivirus encoding for either a CD19.CAR or a GD2.CAR co-expressing shUSP16 #1, shUSP16 #2, or a scrambled shRNA (Control). Cells were cultured in IL-2 and sorted between days 6-13 for EGFRt. At day 15 cells were frozen down (to mimic the clinic setting) and thawed d−1 before injection in immunocompromised mice. Immunocompromised mice (NCG (NOD CRISPR Prkdc II2r Gamma) were provided by Charles River and NSG (NOD.Cg-PrkdcIL2rg<tm1Wj1>/SzJ) were purchased from Jackson Laboratory). CHLA-55 neuroblastoma cell lines were transduced with Gaussia Luciferase and one million cells were injected via tail vein at d−7 (day minus 7).
One million of GD2.CAR T cells were infused via tail vain at day 0 and mice were weighted, and blood was collected every week (FIG. 36). Tumor growth was monitor by weekly assessment of circulating luciferase. Briefly, blood was collected and subsequently analyzed for luciferase expression using Nanolight Technologies Luciferase detection Kit. Luciferase expression (calculated as GLuc, RLU (Relative Luminescence Unit)) in the blood correlates with tumor engraftment.

CD19.CAR T cells = assay: Apoptosis, necrosis, mitochondrial membrane potential and glutathione content (Amberglass panel); format: cell-based, human; conditions: for cells with low mitochondrial membrane potential (Q1) / cellular health: high mitochondrial membrane potential and high GSH content (Q2): day 15; for apoptosis: day 15, FIG. 31A top left; for necrosis: day 15, FIG. 31A top right
Protocol: Primary T cells were activated as described (Example 3), and transduced with a lentivirus encoding for CD19.CAR co-expressing shUSP16 #1, shUSP16 #2 or a scrambled shRNA (Control). Cells were cultured in IL-2 and sorted between days 6-13 for EGFRt. At day 15 cells were stained and analyzed by MACSQuant for apoptosis, necrosis, mitochondrial membrane potential and glutathione content (GSH). The data generation was powered by Amberglass technology made available by Mojave Bio in the form of a dehydrated panel of reagents on a 96 well plate.

primary T cells = assay: Stem cell memory T cell phenotype by flow cytometry (CD45RA+CD62L+); format: cell-based, human; conditions: for stem cell frequency (Tscm phenotype ratio), fold increase over Control: day 20, gated on CD8
Protocol: Primary T cells were activated as described (Example 3), transduced with a lentivirus encoding for either a shUSP16 or a non-targeting shRNA (Ctrl) and sorted for GFP on day 8. Cells were cultured in the presence of IL-2 and their phenotype was analyzed at day 20. Cells were stained for CD4-PerCP-5.5 or CD8-BV510, CD62L-Allophycocyanin, CD45RA-BV510 or PE-Cy7 (Biolegend). Naïve or stem cell memory T cells (TNa/SCM) were identified as Sytox^− GFP^+CD45RA^+CD62L^+. Number of TNa/SCM was calculated as (#CD4 or CD8 T cells*TNa/SCMpercentage)/100. Flow cytometry was performed on the MACQuant (Myltenyi Biotec) and the data analyzed with FlowJo (shCtrl vs shUSP CD4: 0.4978 vs 0.7915, p=0.0673 and CD8: 2.469 vs 4.984, p=0.00392, n=7). Downregulation of USP16 expression increases the number of CD4+CD45RA+CD62L+(FIG. 11A) and CD8+CD45RA+CD62L+(FIG. 11B) cells in culture by 1.7 (p=0.0205) and 1.9 (p=0.0097) times, respectively.
Primary T cells were activated as described (Example 3), transduced with a lentivirus encoding either a shUSP16 #1, shUSP16 #2 or a non-targeting shRNA (shCtrl) and cells were selected with puromycin at day 6. At day 15 cell were collected and analyzed by qPCR for the expression of LEF1 (FIG. 16A) and TCF7 (FIG. 16B), downstream regulators of the WNT pathway. At day 20, cells were stained for CD4-PE, CD8-BV510, CD62L-Allophycocyanin and CD45RA-APC-Cy7 (Biolegend). Stem cell memory T cells (Tscm) were identified as Sytox^− GFP^+CD45RA^+CD62L^+, central memory T cells (Tcm) as Sytox^−GFP^+CD45RA^−CD62L^+, effector memory T cells (Tem) as Sytox^−GFP^+CD45RA^−CD62L^−, and terminal effector T cell (Teff) as Sytox^−GFP^+CD45RA^+CD62L^− (FIG. 17A). Cells were gated on the CD8 population. The specific increase of Tscm was shown as phenotype ratio (FIG. 17B).
Primary T cells were activated as described (Example 3). At Day 6 post-activation, dynabeads were removed and T cells electroporated using the Neon Transfection System (ThermoFisher) with a 2.5:1 ratio sgRNA:Cas9. The experiment was performed following the protocol optimized for primary T cell by Synthego (CRISPR Editing Human Primary CD4+ T cells with RNPs using Neon Electroporation Protocol, 2018 version). The sgRNA used are the following: gUSP16 #1 5′-[…]-3′ (SEQ ID NO: 10) and gSynthego that comprises 3 different sgRNAs (gRNA-A: 5′-[…] 3′ (SEQ ID NO: 11); gRNA-B: 5′-[…]-3′ (SEQ ID NO: 12); gRNA-C: 5′-[…]-3′ (SEQ ID NO: 13)). Control T cells, identified as Mock, were electroporated but no Cas9:sgRNA mixture was added. […] At day 15 post-activation, cells were stained for CD4-PE, CD8-BV510, CD62L-Allophycocyanin and CD45RA-APC-Cy7 (Biolegend). Stem cell memory T cells (Tscm) were identified as Sytox^−GFP^+CD45RA^+CD62L^+ and graphed as ratio compared to mock cells (FIG. 22). The experiment was repeated using primary T cells obtained from buffy coats of 2 different healthy donors.
Primary T cells were activated as described (Example 3), transduced with a lentivirus encoding for either a CD19.CAR or a GD2.CAR co-expressing shUSP16 #1, shUSP16 #2 or a scrambled shRNA (Control). At day 15, GD2.CAR and CD19.CAR T cells were stained for EGFR-AF488 (R&D), CD3-PE, CD8-BV510, CD62L-Allophycocyanin and CD45RA-APC-Cy7 (Biolegend). Stem cell memory T cells (Tscm) were identified as FITC^+CD45RA^+CD62L^+, central memory T cells (Tcm) as FITC^+CD45RA^−CD62L^+, effector memory T cells (Tem) as FITC^+CD45RA^−CD62L^−, and terminal effector T cell (Teff) as FITC^+CD45RA^+CD62L^−. Cells were gated on the CD8 population. The specific increase of Tscm was shown as phenotype ratio (FIGS. 28A and 28B).

shUSP16 #1: shRNA targeting USP16, 5′-GACTGTAAGACTGACAATAAA-3′ (SEQ ID NO: 8), pSIH backbone or co-expressed in CAR plasmid
CHLA-55 engraftment, luciferase expression in blood (GLuc) [1]: 53279 RLU | cells with low mitochondrial membrane potential (Q1) (CD19.CAR T cells): 7.62 percentage of cells | cellular health: high mitochondrial membrane potential and high GSH content (Q2) (CD19.CAR T cells): 89.9 | apoptosis (CD19.CAR T cells): 9.40 | necrosis (CD19.CAR T cells): 4.75 | stem cell frequency (Tscm), fold change vs Control (primary T cells; CD19.CAR, day 15, n=5): 1.994 | stem cell frequency (Tscm), fold change vs Control (primary T cells; GD2.CAR, day 15, n=4): 1.347 | stem cell frequency (Tscm phenotype ratio), fold increase over Control (primary T cells): 2.022

shUSP16 #2: shRNA targeting USP16, 5′-TATATCAGTTCACCCGTAAT-3′ (SEQ ID NO: 9), pSIH backbone or co-expressed in CAR plasmid
CHLA-55 engraftment, luciferase expression in blood (GLuc) [1]: 38968 RLU | cells with low mitochondrial membrane potential (Q1) (CD19.CAR T cells): 9.87 percentage of cells | cellular health: high mitochondrial membrane potential and high GSH content (Q2) (CD19.CAR T cells): 85.7 | apoptosis (CD19.CAR T cells): 8.25 | necrosis (CD19.CAR T cells): 3.96 | stem cell frequency (Tscm), fold change vs Control (primary T cells; CD19.CAR, day 15, n=5): 2.273 | stem cell frequency (Tscm), fold change vs Control (primary T cells; GD2.CAR, day 15, n=4): 1.383 | stem cell frequency (Tscm phenotype ratio), fold increase over Control (primary T cells): 2.63
